Values of other authors, collected in article PMC4457351 (Journal of Visualized Experiments : JoVE, 2014).

Settings: read-out: Kd(calcium)

## Fluo-4
  Kd: ~345 nM
